Laboratory results as given in patent publication US20260285924A1, “PEPTIDE THERAPEUTICS” (priority 2023, published 2026).

Assays:
Assay type in all cases: cell-based, human
[1] = system: A375-NRAS^Q61K; assay: Pan-Cancer PepTile fitness screen (lentiviral 40-mer peptide library, NGS abundance); conditions: peptide enrichment day 14 vs day 0
Procedure: (§1) A peptide tilling screen was performed in A375 similarly to a screen done in MDA-MB-231 (FIG. 1) but with a different lentiviral library. The library (Pan-Cancer library) is composed of 1020 genes tiled every 6 amino acids into 40-mer amino acid long peptides. The gene selection was based on their implication in oncogenesis either being as oncogenes or tumor suppressors. The list was built using recent literature that identified new cancer drivers as well as databases such as Uniprot keywords (KW-0656: Proto-oncogene, KW-0043: Tumor suppressor), and Gene Ontology terms (GO1900117: Apoptosis, GO1901979: Cell cycle checkpoint) (FIG. 2). Aside from Human genes, a list of viral genes was also included (KW-1121: Modulation of host cell cycle by virus) that play roles in high jacking cell cycle progression and thus in oncogenesis (FIG. 2).
(§2) The model of study is melanoma, and this disease is stratified into 4 molecular subtypes, BRAF mutants, NRAS mutants, KIT amplification, NF1 mutations (FIG. 3A). The most prominent mutations found in patient affected with metastatic melanomas are BRAF^V600E and NRAS^Q61K (FIG. 3B). RAS play a key role in oncogenesis and resistance to treatments. Indeed, RAS activating mutations is found in ~20% of all human cancers and secondary NRAS mutation leads to acquired resistance to BRAF targeted therapy such as vemurafenib. Thus, the screen was performed in an A375 cell line model which derived from human BRAF^V600E melanoma as well as an engineered A375 transduced with HA-NRAS^Q61K (FIG. 4A, B). Both cell lines grow at a similar rate but the A375-NRAS^Q61K display more than 10-fold resistance to vemurafenib treatment compared to parental A375 (FIG. 4C, D).
(§3) These cells were transduced with the Pan-Cancer library at a low multiplicity of infection (MOI=0.1-0.3). Then, genomic DNA was extracted at day 0 and day 14 post-transduction to quantify the abundance of peptide for each temporal conditions using Next-generation sequencing. Each experimental replicates were deep sequenced with at least 150 million reads and show a coverage between 82-90% of the initial Pan-Cancer Peptide library (FIG. 5). Then, for each individual peptides a cellular fitness score was calculated based on their enrichment between day 0 and day 14. 8090 peptides negatively affecting growth of A375-WT were identified and 8153 peptides for the A375-NRAS^Q61K cell line (FIG. 6). […] Those common hits are found to be tiles from ~100 genes of the Pan-Cancer gene list and show a substantial biological function clustering.

[2] = system: A375-WT; assay: Pan-Cancer PepTile/PiTile fitness screen (lentiviral 40-mer peptide library, NGS abundance); set-up: key: enrichment of each peptide's NGS abundance, early day vs Day 14; conditions: for A375-WT Fitness Score: Pan-Cancer library, peptide enrichment day 14 vs day 0
Source text: FIGS. 13A-13D show Pan-Cancer PiTile Workflow. (A) The Pan-Cancer peptide library is composed of 1081 proteins tiled into 40-mer peptides at every 6 amino acids of the parental protein. The DNA-encoded library is cloned into lentiviral vectors and packaged into lentivirus. (B) A375 cell line was transduced with the Pan-Cancer PiTile library. Genomic DNA was then harvested at Day2 and Day 14 post-transduction and cell populations abundance expressing the different peptides were quantified using Next-Generation Sequencing (NGS). Peptide fitness score was then calculated by the abundance of each peptide at Day2 versus Day 14. Then the fitness signal is mapped over the original amino acid positions of the derived protein. (C) Coverage of the plasmid Pan-Cancer library and peptide-amplicons from Day2 and Day 14 replicated was determined by NGS. (D) Dot plot of the experimental result obtain from screening the Pan-Cancer library in A375 cell line.
as §1, §2, §3
We built a DNA-encoded peptide library composed of all known Human oncogenes and Tumor Suppressors that we fragmented in 40 amino acid long peptides, the Pan-Cancer library. Using lentiviral expression system, we transduced the Pan-Cancer library in A375 cell line. After 14 days of growth, the frequency of each peptide is measured by NGS and this reveal which peptides affect cell fitness. […]

[3] = system: A-to-I RNA editing reporter (ADAR) in A375; assay: A-to-I PepTile (REPTILE) screen: A-to-I editing of dsRNA hairpin reporter by NGS; conditions: for % A-to-I editing (IFNα): IFNα 6000 U/ml for 48 hours; for % A-to-I editing (Basal): no treatment
Source text: (§4) FIGS. 12A-12D. A-to-I PepTile screen. (A) Composition of A-to-I PepTile linrary screen, and schematic description of the lentiviral expression vector. (B) Experimental workflow. A375 cells were transduced at low MOI, and then treated or not with IFNα for 48 hrs. RNA was extracted and Peptide_ADARreporter RNA species were amplified and sequenced by NGS. (C) Dot plot of A-to-I PepTile library effect on A-to-I editing with or without IFNα treatment. Red line is the mean A-to-I editing of all the 8088 peptides (>100 read counts) no treatment: 25.75% IFNα: 37.6%. (D) Dot plot of A-to-I PepTile library fitness effect upon IFNα for 48 hrs.
FIGS. 17A-17F show A-to-I RNA Editing PiTile (REPTILE) screen in A375. (A) A-to-I RNA Editing PiTile (REPTILE) library design consist of fragmentation of all known ADAR1, ADAR2 interactors and all human double stranded RNA-binding protein into 40 amino acid long peptide. This library was then cloned into a lentivirus vector that also encode a DNA-encoded RNA loop reporter (A-to-I Rep) that is edited by ADAR proteins in cells at the RNA level. When the construct is expressed, the RNA loop gets edited on a single Adenosine, while the 40-mer peptide get expressed at the protein level. Then we can measure the impact of the peptide expression on the editing rate of the RNA loop reporter by sequencing (NGS and Sanger). (B) Experimental workflow of REPTILE screen in A375 cell line. Cells were transduced with the REPTILE library, and then treated for 48 hours with IFNα. Following the treatment, RNA was harvested, converted into cDNA and amplicon library containing peptide Identity (barcode) linked to the RNA loop reporter were prepared for NGS. (C) Result of the A375 REPTILE screen in the no treatment condition. Each dot represents a unique peptide that is associated with an A-to-I editing rate that was measured on the RNA loop. (D) Result of the A375 REPTILE screen in the IFNα condition. Each dot represents a unique peptide that is associated with an A-to-I editing rate that was measured on the RNA loop. Red line represent the A-to-I editing mean, Dash blue line represent 2 times the standard deviation of the % A-to-I editing across all the datasets. This cutoff was used to defined peptides hits that modulate RNA A-to-I editing. (E) Peptide A-to-I Inhibitor Hits intersection between no treatment (% A-to-I editing<15%) and IFNα (% A-to-I editing<27%) conditions. (F) Peptide A-to-I Enhancers Hits intersection between no treatment (% A-to-I editing>36%) and IFNα (% A-to-I editing>47%) conditions.
Provided herein is a screening methodology to measure the effect of small peptide on A-to-I RNA editing in situ and screen thousands of peptides in a single experiment. First, a library of peptides with the potential of impairing A-to-I editing was designed and built. ADAR enzymes edit RNA only on double-stranded RNA structures and via ADAR's double stranded RNA-Binding Domain (dsRBD). […] The A-to-I PepTile library is composed of 19 Human proteins having dsRBD and 34 known protein-protein interactors of ADAR1/2. All these proteins were tiled into 40-mer peptides every 4 amino acids (FIG. 12A). To measure A-to-I editing, a biosensor consisting of a 71 bp dsRNA hairpin structure that gets A-to-I edited at a rate of 25% in A375 melanoma cells, and ~37% upon IFNα treatment was used. This A-to-I editing reporter is fused with DNA sequence encoding for a peptide from the A-to-I PepTile library. The A-to-I PepTile plasmid pool (10304 elements) was used to produced lentiviruses and transduced A375 cells at a low multiplicity of infection (MOI) (FIG. 12B). A part of the infected cells was treated with IFNα at 6000 U/ml for 48 hours, and then bulk RNA of the basal and treated condition was harvested. RNA was then retrotranscribed into cDNA and sequenced by Next-Generation Sequencing (NGS). […]

[4] = system: A375 cells; assay: A-to-I PepTile screen: fitness effect upon IFNα (PepTile abundance untreated vs treated)
Source text: as §4
Provided herein is a screening methodology to measure the effect of small peptide on A-to-I RNA editing in situ and screen thousands of peptides in a single experiment. First, a library of peptides with the potential of impairing A-to-I editing was designed and built. ADAR enzymes edit RNA only on double-stranded RNA structures and via ADAR's double stranded RNA-Binding Domain (dsRBD). […] The A-to-I PepTile library is composed of 19 Human proteins having dsRBD and 34 known protein-protein interactors of ADAR1/2. All these proteins were tiled into 40-mer peptides every 4 amino acids (FIG. 12A). To measure A-to-I editing, a biosensor consisting of a 71 bp dsRNA hairpin structure that gets A-to-I edited at a rate of 25% in A375 melanoma cells, and ~37% upon IFNα treatment was used. This A-to-I editing reporter is fused with DNA sequence encoding for a peptide from the A-to-I PepTile library. The A-to-I PepTile plasmid pool (10304 elements) was used to produced lentiviruses and transduced A375 cells at a low multiplicity of infection (MOI) (FIG. 12B). A part of the infected cells was treated with IFNα at 6000 U/ml for 48 hours, and then bulk RNA of the basal and treated condition was harvested. RNA was then retrotranscribed into cDNA and sequenced by Next-Generation Sequencing (NGS). With the sequencing data, the A-to-I editing percentage of the RNA reporter for each PepTile is calculated since both elements are encoded on the same transcript. Moreover, with this screen one can also measure the abundance of the PepTiles between the untreated and treated conditions and determine Fitness score associated to every PepTile. To ensure a robust and more accurate A-to-I editing % estimation a cut-off of 100 read counts was set for each PepTile. […] SEQ ID NOs: 2125-2147 are A-to-I peptide inhibitors and SEQ ID NOs: 2148-2210 are A-to-I activators. In addition, 117 PepTiles were identified that either synergize (SEQ ID NOs: 2211-2243) or protect (SEQ ID NOs: 2244-2327) to IFNα-induced cell death (FIG. 12D and Table 5). These PepTiles are potential new therapeutic agents that can modulate the Interferon pathway. They may be beneficial in treating inflammatory conditions and may also enhance the effectiveness of cancer immunotherapy through synergistic effects.

[5] = IFNα 6000 U/ml for 48 hours vs untreated

Row | Substance | A375-NRAS Fitness Score [1] | A375-WT Fitness Score [2] | Fitness score ([2]; PanCancer Peptide Table (Table 3), lentivirally expressed 40-mer peptide tile) | % A-to-I editing (IFNα) [3] [%] | % A-to-I editing (Basal) [3] [%] | Fitness Score IFNα [4, 5] | Fitness Score IFNα ([4]; A375, PepTile abundance upon IFNα treatment, negative = synthetic lethal, positive = protector)
1 | ARID2_13: 40-mer peptide tile of ARID2, AA start position 72, ARID domain (IVEEFNFPRSCSNAAFALKQYYLRYLEKYEKVHHFGEDDD; UniProt Q68CP9 72-111, looked up, fragment) | 0.85 | −2.41 | – | – | – | – | –
2 | AXIN1_22: 40-mer peptide tile of AXIN1, AA start position 126, RGS domain (KLEPCDSNEEKRLKLARAIYRKYILDNNGIVSRQTKPATK; RGS domain peptide tile; UniProt O15169 126-165, looked up, fragment) | −0.54 | −2.88 | – | – | – | – | –
3 | BRAF_64: 40-mer peptide tile of BRAF, AA start position 378, CR2 domain (NIDDLIRDQGFRGDGGSTTGLSATPPASLPGSLTNVKALQ; UniProt P15056 378-417, looked up, fragment) | −2.72 | −2.28 | – | – | – | – | –
4 | CDKN2B_4: 40-mer peptide tile of CDKN2B, AA start position 18, ANK domain (LASAAARGLVEKVRQLLEAGADPNGVNRFGRRAIQVMMMG; UniProt P42772 18-57, looked up, fragment) | −3.63 | 0.36 | – | – | – | – | –
5 | CTNNB1_30: 40-mer peptide tile of CTNNB1, AA start position 174, Armadillo domain (MVHQLSKKEASRHAIMRSPQMVSAIVRTMQNTNDVETARC; UniProt P35222 174-213, looked up, fragment) | −0.85 | −3.29 | −3.30 | – | – | – | –
6 | DOCK4_114: 40-mer peptide tile of DOCK4, AA start position 678, Armadillo domain (LIKVLKWYVDRITEAERQEHIQEVLKAQEYIFKYIVQSRR; UniProt Q8N1I0 678-717, looked up, fragment) | −3.45 | 0.87 | – | – | – | – | –
7 | MVSSAAGPLGPGDAVRRVLECVATGTLLTDGPGLQDPCERD [ZFR2_206] | – | – | – | 55.48 | 44.05 | 0.81 | –
8 | MVVLLCRQPCASQSSLKDINWDSSQWQPLIQDRCFLSWLVK [UPF1_52] | – | – | – | 47.63 | 50.56 | -0.80 | –
9 | MVYQAPLSLATVPHQALGRTQSSPAAPGGMKSPPDQPVKHL [HDAC5_161] | – | – | – | 48.17 | 43.88 | -0.12 | –
10 | MWDSIIQQATKNVDILKDPETVKQLGSILKTNVRACKAVGH [XPO1_167] | – | – | – | 25.96 | 11.93 | 1.42 | –
11 | MYSGYEAAVYSAASSYYQQQQQQQKQAAAAAAAAAATAAWT [ZFR_67] | – | – | – | 47.21 | 41.43 | 2.43 | 2.43
